Data published in paper PMC4764201, “High Throughput Screen for Escherichia coli Twin Arginine Translocation (Tat) Inhibitors” (PLoS ONE, 2016).

Assays:
[1] = molecular target: E. coli Tat machinery (IMVs containing overproduced TatABC) (Escherichia coli, UniProt P69423+P69425+P69428); test: In vitro Tat transport assay of pre-SufI into IMVs, NADH as energy source; type: biochemical; conditions: hit compound 100 μM
E. coli MC4100(DE3) = test: Cell growth (optical density A500) under Tat++ conditions; type: cell-based, Escherichia coli; conditions: Tat++ conditions, concentration-dependent, 8 h 25°C
Procedure: Fig 4 Effect of Oxidative Phosphorylation Inhibitors on In Vivo Tat Transport and Sensitivity of Fluorescence Detection on Plates. (A) Effect of oxidative phosphorylation inhibitors on cell growth and mCherry fluorescence under Tat^++ conditions. Cells producing spTorA-mCherry-SsrA under Tat^++ conditions were grown at 25°C for 8 h in the presence of the indicated respiratory inhibitors. After overnight incubation at 4°C, optical densities (upper panel; A500) and total mCherry cellular fluorescence intensities (lower panel; EX = 587 nm, EM = 610 nm) were measured (n = 3). Nigericin (N; 50 μM) is a H^+/K^+ exchanger, which collapses the ΔpH gradient. Valinomycin (V; 50 μM) is a K^+ ionophore, which collapses the Δψ. NaSCN (SCN; 50 mM) collapses the Δψ. NaN3 (N3; 0.1%) inhibits the cytochrome bo3 terminal oxidase. (B) Effect of NaSCN concentration on cell density and total mCherry cellular fluorescence. Measurements were made after incubating cells overnight at 4°C (n = 3). (C) Calibration and sensitivity of mCherry fluorescence detection in 384-well plates. Overnight cultures of E. coli MC4100(DE3) cells were diluted to A500 = 0.25, 0.2, 0.15, 0.10 and 0.05, and aliquoted into 384-well plates. The spTorA-mCherry-SsrA and TatABC proteins were induced together or neither were induced, as indicated. The cells were incubated at 25°C for 8 hours, and stored overnight at 4°C. Optical densities (upper panel) and mCherry fluorescence intensities (lower panel) were determined with a BMG Polarstar Omega plate reader (at 500 nm for absorbance; EX = 584 nm, EM = 620 nm for fluorescence). For comparison, the absorbance and fluorescence intensities from purified spTorA-mCherry-H6 (30, 25, 20, 15, 10 and 5 nM) are also shown (n = 3 plates, 16 wells/plate). (D) Simulated hits on 384-well plates. Using the approach described in (C), cells (A500 = 0.15) were grown on plates under the indicated conditions, and then fluorescence intensities were measured. spTorA-mCherry-SsrA was used for conditions II-IV. spTorA-mCherry-H6 was used for a minus SsrA control (I; 100%). The SsrA tag decreased the mCherry fluorescence intensity (II; 63±14%), consistent with a decrease in cytoplasmic mCherry concentration due to SsrA-dependent degradation.
The plates containing cells and dispersed test compounds were grown with shaking (200 rpm) at 25°C for 8 h. Plates were individually mounted, not stacked, on a hollow plastic platform, allowing adequate air circulation. Following the 8 h incubation, plates were transferred to 4°C for 16 h. Each plate was covered with an empty plate to prevent condensation on the lid. […] Following the incubation, plates were read using a BMG Polarstar Omega plate reader (BMG Labtech, Ortenberg, Germany) to determine optical densities (A500) and mCherry fluorescence intensities (EX = 584 nm, EM = 620 nm).
Supplementary file pone.0149659.s005.tiff: S5 Fig Effect of P. aeruginosa Tat Inhibitors on E. coli Cell Growth and Tat Transport. The concentration-dependent effects of Bay 11–7082 (A) and N-phenylmaleimide (B) on bacterial growth (black) and in vivo Tat transport of spTorA-mCherry-SsrA (red) was determined under Tat^++ conditions (top). An overnight culture of MC4100(DE3) (pTorA-mCherry-SsrA, pTatABC-Duet1) was diluted 1:50 in 10 mL fresh LB broth with appropriate antibiotics and dispensed (2 mL) into 5 tubes, and growth was continued at 37°C with shaking at 200 rpm until A500 ≈ 0.5. The indicated concentrations of the two compounds were added, and the expression of spTorA-mCherry-SsrA and TatABC were induced. Cultures were grown for another 8 h at 25°C. Cell growth was assayed by A500, and cells (1 mL, A500 = 1.0) were fractionated into cytoplasmic (C) and periplasmic (P) fractions as described. Transport of spTorA-mCherry-SsrA was assayed by in-gel fluorescence of mCherry (upper gels) and Western blot analyses (middle gels). […]

[2] = test system: E. coli Tat machinery (IMVs containing overproduced TatABC); test: In vitro Tat transport assay of pre-SufI into IMVs, NADH as energy source; type: biochemical, Escherichia coli; conditions: hit compound 100 μM

E. coli Tat machinery (IMVs containing overproduced TatABC) (Escherichia coli, UniProt P69423+P69425+P69428), sequence (P69423 2-258): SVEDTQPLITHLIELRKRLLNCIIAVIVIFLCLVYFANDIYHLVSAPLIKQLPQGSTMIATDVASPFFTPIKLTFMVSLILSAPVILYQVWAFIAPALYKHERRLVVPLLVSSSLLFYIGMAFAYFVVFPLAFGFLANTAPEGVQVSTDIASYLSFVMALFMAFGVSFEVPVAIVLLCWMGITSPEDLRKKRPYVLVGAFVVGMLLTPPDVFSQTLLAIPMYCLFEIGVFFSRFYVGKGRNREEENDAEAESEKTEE
E. coli Tat machinery (IMVs containing overproduced TatABC) (Escherichia coli, UniProt P69423+P69425+P69428), sequence (P69425 whole entry): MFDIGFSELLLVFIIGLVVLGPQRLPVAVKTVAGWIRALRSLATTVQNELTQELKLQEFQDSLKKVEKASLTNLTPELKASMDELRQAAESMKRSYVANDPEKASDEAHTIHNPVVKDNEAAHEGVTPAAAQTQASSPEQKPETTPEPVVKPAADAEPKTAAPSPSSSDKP
E. coli Tat machinery (IMVs containing overproduced TatABC) (Escherichia coli, UniProt P69423+P69425+P69428), sequence (P69428 whole entry): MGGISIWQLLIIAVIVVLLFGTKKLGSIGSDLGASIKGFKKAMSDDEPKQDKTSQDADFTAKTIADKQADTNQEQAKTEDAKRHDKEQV

SMILES	effect on E. coli growth (E. coli MC4100(DE3))	other results
N#CC1c2ccccc2-n2nncc2CN1Cc1cc(Cl)cc(Cl)c1 (stereo not shown) [21^NIH, 5-[(3,5-dichlorophenyl)methyl]-4,6-dihydrotriazolo[1,5-a][1, 4]benzodiazepine-6-carbonitrile]		outcome of NADH-dependent in vitro Tat transport screen (survival = visible inhibition of Tat transport) [1]: survived
Cc1ccc(S(=O)(=O)/C=C/C#N)cc1 [Bay 11–7082]	inhibited E. coli growth	
Oc1cc(Cl)ccc1Oc1ccc(Cl)cc1Cl [Compound 18^NIH, 5-Chloro-2-(2,4-dichlorophenoxy)phenol]		outcome of NADH-dependent in vitro Tat transport screen (survival = visible inhibition of Tat transport) [2]: survived
O=C1C=CC(=O)N1c1ccccc1 [N-phenylmaleimide]	inhibited E. coli growth	
